Patent US20250177448A1, “NEW USE OF PEG-PHOSPHOLIPID MOLECULES” (ICOAT MEDICAL AB, priority 2022, published 2025)

Experiments:
[1] = test system: porcine kidney transplant, ischemia reperfusion injury
Protocol: TAT was measured in both human and porcine plasma using an anti-human thrombin monoclonal antibody was used for capturing and an HRP-coupled anti-human antithrombin (AT) antibody was used for detection (Enzyme Research Laboratories, South Bend, IN, USA).
In addition, TNF, IL-1b, IL-6 and tissue factor (TF) were quantified in plasma by immunoassays using a GyroLab workstation (Gyros, Uppsala, Sweden), and the presence of these compounds, as well as IFNγ in biopsies (below) were verified by PCR.
Paraffin sections of porcine kidney tissue were cut (3-5 μm), deparaffinized in xylene and rehydrated with a graded series of ethanol and distilled water. For IHC staining a heat-induced antigen retrieval was performed by boiling the sections in sodium citric buffer (pH 6), the sections were blocked with 10% normal goat serum (Jackson Immunoresearch) before primary antibody incubation: anti-MAC (abcam ab66768); anti-C3b alpha chain (Bioss bs-4873R); anti-C4d (abcam ab64157), anti-C5aR (Acris AP06509PU-N), anti-HO1 (abcam ab52947), anti-CSE (abnova H00001491-M01), anti-Nitrotyrosine (Merck Millipore AB5411), anti-NOS2 (Santa Cruz sc-651), detection was performed by DAKO Real
Detection System alkaline phosphatase red (Dako). The sections were counterstained with Mayer's hematoxylin (Sigma #51275). Control staining was done with a nonspecific rabbit IgG (Dako #X0936). The slides were visualized using a Zeiss Axio Imager A1 microscope with a ×10 objective (100-fold magnification). Intensity of staining was quantified on multiple randomly selected 800,000 μm^2 sections using the AxioVision 4.8 software (Zeiss). Data are presented as mean densitometric sum red.

[2] = test system: Rhesus factors D, C, c, E and e on erythrocytes; assay: Agglutination test and Rh phenotyping of coated erythrocytes; assay type: cell-based; details: 2 mg/ml final, 30 min 37° C.; one O Rh+ and two A Rh+ blood samples; vs untreated control
Protocol: Whole blood samples (one O, Rh+ blood sample and two A Rh+ blood samples) from the blood center were centrifuged in Eppendorf tubes in an Eppendorf 5810R centrifuge at 2500 rpm for 10 min at room temperature (20-25° C.) and the plasma was removed and discarded. The cell fractions were subject to three washing steps in 50 ml falcon tubes. Each washing step involved adding 45 ml phosphate buffered saline (PBS) to 1 ml cell fraction followed by centrifugation at 2500 rpm for 10 minutes at room temperature.
100 μl cell suspension was mixed with 900 μl PBS and 1000 μl PEG-phospholipid (4 mg/ml, polyethylene glycol-phospholipid with PEG of 5 kDa (PEG-phospholipid) in PBS, SUNBRIGHT® PP-050CN, N-(methylpolyoxyethylene oxycarbonyl)-1,2-dipalmitoyl-sn-glycero-3-phosphoethanolamine, sodium salt, NOF Corp., Japan) to coat the erythrocytes with 2 mg/ml PEG-phospholipid (final concentration) or 1000 μl PBS as control. The erythrocyte samples were incubated 30 min at 37° C. in an incubator under rotation in a POL-EKO laboratory incubator. The erythrocyte samples were washed three times with 2 ml PBS and centrifuged at 2500 rpm for 5 min at room temperature in a Heraeus Biofuge Pico centrifuge.
The washed erythrocyte samples were then subject to an agglutination test and Rh phenotyping. […]

[3] = Vascular and tubular distribution and detachment of PEG-phospholipid in vivo (transplanted pig kidney)
Protocol: Full information on donor and recipient pigs is given in Example 5. […] Four recipient pigs were transplanted with biotin-PEG-phospholipid-treated kidneys. Their native kidneys were not removed and remained in the animals throughout the study. The four recipient pigs were euthanized after 12, 24, 48 and 72 h, respectively and biopsies were taken at euthanasia from the biotin-PEG-phospholipid treated kidney and one of the native kidneys. Frozen sections (4 μm thickness) were incubated in Alexa488-streptavidin (GE Healthcare, 1:500) at RT for 10 min. The sections were analyzed by laser-scanning confocal microscopy (LSM510, META, Carl Zeiss, Germany).
Frozen sections (4 μm thickness) of kidneys treated with biotin-PEG-phospholipid and control kidneys were incubated in Alexa488-streptavidin (GE Healthcare, 1:500) at RT for 10 min. The sections were analyzed by laser-scanning confocal microscopy (LSM510, META, Carl Zeiss, Germany).

[4] = ANSM biopsies, electron microscopy, vs matched individual controls
[5] = ANSM, 1, 60 and 360 min, treated vs non-treated kidneys
[6] = ANSM, 6 h observation, treated vs untreated kidneys
[7] = ANSM, treated vs untreated kidneys

## N-(methylpolyoxyethylene oxycarbonyl)-1,2-dipalmitoyl-sn-glycero-3-phosphoethanolamine [PEG-phospholipid]
[1]; [4]
  glomerular NETosis (renal NET deposition): marked decrease
  tubular NETosis (renal NET deposition): marked decrease
[1]; [5]
  HO-1 staining in biopsies: No difference was found
  INOS staining in biopsies: No difference was found
  nitrotyrosine staining in biopsies: No difference was found
[1]; [6]
  C3a in renal vein blood: substantially lower
  FXIla-C1INH in renal vein blood: substantially lower
  TAT in renal vein blood: substantially lower
  sC5b-9 in renal vein blood: substantially lower
[1]; ANSM, RT-PCR, vs controls
  IL-1β mRNA expression in kidney biopsies: lower
  IL-6 mRNA expression in kidney biopsies: lower
  TF mRNA expression in kidney biopsies: lower
  TNF mRNA expression in kidney biopsies: lower
[1]; ANSM, n=6
  deposition of NETs in all locations (glomerular, tubular, vascular): highly significant reduction
[1]; [7]
  binding of C3b in kidney biopsies: significantly lower binding
  binding of C4d in kidney biopsies: tendency of a lower binding
[1]; ANSM, vs controls
  IL-1β plasma concentration in the renal vein: lower
  IL-6 plasma concentration in the renal vein: lower
  TF plasma concentration in the renal vein: lower
  TNF plasma concentration in the renal vein: lower
[1]; pig, in vivo
  time within which fluorescence migrated from the glomeruli to the tubular system: ≤ 6 h
[2]
  agglutination of erythrocytes (Rhesus factor antigens): inhibited agglutination
[3]; pig kidney, biotin-labeled PEG-phospholipid, 95% confidence interval 8-26
  t½ of PEG-phospholipid calculated from fluorescence images: 14 h
[3]; reliably detected only after 1 hour
  systemic leakage of PEG-phospholipid (autologous kidneys of the recipient): very low
